Test system: human CRHR1
Assay: CRH-induced luciferase reporter blocking assay, CHO-CRE-hCRHR1 cells
Format: cell-based
Conditions: CHO-CRE-hCRHR1 Clone 11, data not shown
Description: To create CHO-CRE-hCRHR1, -hCRHR2, -mCRHR1, and -mCRHR2 reporter cell lines, pcDNA3.1-hCRHR1, -hCRHR2, -mCRHR1, and -mCRHR2 were introduced into CHO-CRE cells established above by electroporation as described above. Selection antibiotics hygromycin at 500 μg/ml and G418 at 1,000 μg/ml were employed. Individual established stable cell lines were characterized by both CRH and forskolin stimulation.
Activated GPCR proteins increase production of the intracellular cAMP.
Blocking CRHR1 by small molecules or neutralization of CRH peptide can reduce luciferase expression if the CRH-CRHR1 system works in CHO-CRE-hCRHR1 cells.
50 μl of 4× serially diluted antibodies was added (8 points, 1/4 diluted by growth medium) to plates containing CHO-CRE-hCRHR1 cells, and 50 μl of 4×CRH (4× is 2 nM, final is 0.5 nM) was added. Similarly, 4×CRH (4× is 0.4 nM, final is 0.1 nM) was added to CHO-CRE-hCRHR2 cells and CHO-CRE-mCRHR1 cells, and 4×CRH (4× is 20 nM, final is 5 nM) was added to CHO-CRE-mCRHR2 cells. Next, plates were incubated 4-6 hours at 37° C. in a CO2 incubator. 60 μl of culture medium was removed, to which was added 60 μl of Bio-Glo luciferase, followed by incubation for 10 min at RT. Plates were read in a luciferase plate reader (EnVision, PerkinElmer).

**Q.** How did the CRH-mediated luciferase expression turn out when `CCCCN(CC)c1nc(C)nc2c1c(C)c(C)n2-c1c(C)cc(C)cc1C` [Antalarmin, reference compound] was run?
**A.** Its CRH-mediated luciferase expression is “blocked”.

Reference: US20260042834A1, “ANTI-CORTICOTROPIN-RELEASING HORMONE ANTIBODIES AND POLYCYSTIC OVARY SYNDROME” (HBM ALPHA THERAPEUTICS, INC., priority 2022, published 2026)
